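Five concentrations, 48 hours, 96-well plates. GI50 is the concentration that inhibits growth by half. TGI: total growth inhibition.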
Columns and labels:
Test in all cases: NCI tumour cell line growth inhibition, 48 h
786-0 renal = test system: 786-0 renal
A498 renal = test system: A498 renal
A549 NSCLC = test system: A549 NSCLC
ACHN renal = test system: ACHN renal
BT-549 breast = test system: BT-549 breast
CAKI-1 renal = test system: CAKI-1 renal
CCRF-CEM leukemia = test system: CCRF-CEM leukemia
COLO 205 colon = test system: COLO 205 colon
DU-145 prostate = test system: DU-145 prostate
EKVX NSCLC = test system: EKVX NSCLC
HCC-2998 colon = test system: HCC-2998 colon
HCT-116 colon = test system: HCT-116 colon
HCT-15 colon = test system: HCT-15 colon
HL-60(TB) leukemia = test system: HL-60(TB) leukemia
HOP-62 NSCLC = test system: HOP-62 NSCLC
HOP-92 NSCLC = test system: HOP-92 NSCLC
HS 578T breast = test system: HS 578T breast
HT29 colon = test system: HT29 colon
IGROV1 ovarian = test system: IGROV1 ovarian
K-562 leukemia = test system: K-562 leukemia
KM12 colon = test system: KM12 colon
LOX IMVI melanoma = test system: LOX IMVI melanoma
M14 melanoma = test system: M14 melanoma
MALME-3M melanoma = test system: MALME-3M melanoma
MCF7 breast = test system: MCF7 breast
MDA-MB-231 breast = test system: MDA-MB-231 breast
MDA-MB-435 = test system: MDA-MB-435
MOLT-4 leukemia = test system: MOLT-4 leukemia
NCI-H226 lung = test system: NCI-H226 lung
NCI-H23 lung = test system: NCI-H23 lung
NCI-H460 lung = test system: NCI-H460 lung
NCI-H522 lung = test system: NCI-H522 lung
NCI/ADR-RES ovarian = test system: NCI/ADR-RES ovarian
OVCAR-4 ovarian = test system: OVCAR-4 ovarian
OVCAR-5 ovarian = test system: OVCAR-5 ovarian
OVCAR-8 ovarian = test system: OVCAR-8 ovarian
PC-3 prostate = test system: PC-3 prostate
RPMI-8226 leukemia = test system: RPMI-8226 leukemia
RXF 393 renal = test system: RXF 393 renal
SF-268 CNS = test system: SF-268 CNS
SF-295 CNS = test system: SF-295 CNS
SF-539 CNS = test system: SF-539 CNS
SK-MEL-2 melanoma = test system: SK-MEL-2 melanoma
SK-MEL-28 melanoma = test system: SK-MEL-28 melanoma
SK-MEL-5 melanoma = test system: SK-MEL-5 melanoma
SK-OV-3 ovarian = test system: SK-OV-3 ovarian
SN12C renal = test system: SN12C renal
SNB-19 CNS = test system: SNB-19 CNS
SNB-75 CNS = test system: SNB-75 CNS
SR leukemia = test system: SR leukemia
SW-620 colon = test system: SW-620 colon
T-47D breast = test system: T-47D breast
TK-10 renal = test system: TK-10 renal
U251 CNS = test system: U251 CNS
UACC-257 melanoma = test system: UACC-257 melanoma
UACC-62 melanoma = test system: UACC-62 melanoma
UO-31 renal = test system: UO-31 renal

Which results are given for `CCN(CC)CCCC(C)NCC(=O)NC(c1ccc2c(c1)OCO2)c1cc(Cl)c2cccnc2c1O` (centres undefined)?
GI50 (786-0 renal): 2.3 µM; TGI (786-0 renal): 5.75 µM; GI50 (A498 renal): 2.35 µM; TGI (A498 renal): 6.69 µM; GI50 (A549 NSCLC): 2.83 µM; TGI (A549 NSCLC): 13.4 µM; GI50 (ACHN renal): 2.79 µM; TGI (ACHN renal): 10.1 µM; GI50 (BT-549 breast): 4.78 µM; TGI (BT-549 breast): 17.1 µM; GI50 (CAKI-1 renal): 1.77 µM; TGI (CAKI-1 renal): 4.41 µM; GI50 (CCRF-CEM leukemia): 0.909 µM; TGI (CCRF-CEM leukemia): 12.2 µM; GI50 (COLO 205 colon): 2.36 µM; TGI (COLO 205 colon): 8.42 µM; GI50 (DU-145 prostate): 2.63 µM; TGI (DU-145 prostate): 15.7 µM; GI50 (EKVX NSCLC): 1.65 µM; TGI (EKVX NSCLC): 11 µM; GI50 (HCC-2998 colon): 1.73 µM; TGI (HCC-2998 colon): 4.13 µM; GI50 (HCT-116 colon): 1.41 µM; TGI (HCT-116 colon): 11.2 µM; GI50 (HCT-15 colon): 2.44 µM; TGI (HCT-15 colon): 11.9 µM; GI50 (HL-60(TB) leukemia): 1.29 µM; TGI (HL-60(TB) leukemia): 4.41 µM; GI50 (HOP-62 NSCLC): 1.56 µM; TGI (HOP-62 NSCLC): 6.88 µM; GI50 (HOP-92 NSCLC): 1.62 µM; TGI (HOP-92 NSCLC): 8.17 µM; GI50 (HS 578T breast): 4.37 µM; TGI (HS 578T breast): 22.6 µM; GI50 (HT29 colon): 2.41 µM; TGI (HT29 colon): 10.4 µM; GI50 (IGROV1 ovarian): 2.53 µM; TGI (IGROV1 ovarian): 10.8 µM; GI50 (K-562 leukemia): 0.895 µM; TGI (K-562 leukemia): 9.33 µM; GI50 (KM12 colon): 2.41 µM; TGI (KM12 colon): 9.78 µM; GI50 (LOX IMVI melanoma): 1.22 µM; TGI (LOX IMVI melanoma): 3.13 µM; GI50 (M14 melanoma): 1.42 µM; TGI (M14 melanoma): 3.27 µM; GI50 (MALME-3M melanoma): 1.68 µM; TGI (MALME-3M melanoma): 3.29 µM; GI50 (MCF7 breast): 1.59 µM; TGI (MCF7 breast): 10.6 µM; GI50 (MDA-MB-231 breast): 1.35 µM; TGI (MDA-MB-231 breast): 11.9 µM; GI50 (MDA-MB-435): 1.81 µM; TGI (MDA-MB-435): 3.87 µM; GI50 (MOLT-4 leukemia): 0.626 µM; TGI (MOLT-4 leukemia): 11.2 µM; GI50 (NCI-H226 lung): 2.12 µM; TGI (NCI-H226 lung): 6.71 µM; GI50 (NCI-H23 lung): 2.99 µM; TGI (NCI-H23 lung): 11.2 µM; GI50 (NCI-H460 lung): 1.48 µM; TGI (NCI-H460 lung): 6.45 µM; GI50 (NCI-H522 lung): 2.36 µM; TGI (NCI-H522 lung): 6.97 µM; GI50 (NCI/ADR-RES ovarian): 3.31 µM; TGI (NCI/ADR-RES ovarian): 15.5 µM; GI50 (OVCAR-4 ovarian): 1.39 µM; TGI (OVCAR-4 ovarian): 14.7 µM; GI50 (OVCAR-5 ovarian): 2.73 µM; TGI (OVCAR-5 ovarian): 15.5 µM; GI50 (OVCAR-8 ovarian): 2.56 µM; TGI (OVCAR-8 ovarian): 13.1 µM; GI50 (PC-3 prostate): 2.03 µM; TGI (PC-3 prostate): 12 µM; GI50 (RPMI-8226 leukemia): 2.36 µM; TGI (RPMI-8226 leukemia): 7.77 µM; GI50 (RXF 393 renal): 2.33 µM; TGI (RXF 393 renal): 10.3 µM; GI50 (SF-268 CNS): 2.21 µM; TGI (SF-268 CNS): 10.6 µM; GI50 (SF-295 CNS): 1.56 µM; TGI (SF-295 CNS): 3.41 µM; GI50 (SF-539 CNS): 1.85 µM; TGI (SF-539 CNS): 4.05 µM; GI50 (SK-MEL-2 melanoma): 2.37 µM; TGI (SK-MEL-2 melanoma): 6.33 µM; GI50 (SK-MEL-28 melanoma): 1.47 µM; TGI (SK-MEL-28 melanoma): 3.08 µM; GI50 (SK-MEL-5 melanoma): 1.67 µM; TGI (SK-MEL-5 melanoma): 3.11 µM; GI50 (SK-OV-3 ovarian): 2.93 µM; TGI (SK-OV-3 ovarian): 8.45 µM; GI50 (SN12C renal): 3.15 µM; TGI (SN12C renal): 13.7 µM; GI50 (SNB-19 CNS): 3.23 µM; TGI (SNB-19 CNS): 15.2 µM; GI50 (SNB-75 CNS): 2.18 µM; TGI (SNB-75 CNS): 8.73 µM; GI50 (SR leukemia): 0.897 µM; TGI (SR leukemia): 5.61 µM; GI50 (SW-620 colon): 2.32 µM; TGI (SW-620 colon): 11.9 µM; GI50 (T-47D breast): 2.89 µM; TGI (T-47D breast): 9.19 µM; GI50 (TK-10 renal): 3.36 µM; TGI (TK-10 renal): 15.1 µM; GI50 (U251 CNS): 2.1 µM; TGI (U251 CNS): 13 µM; GI50 (UACC-257 melanoma): 1.92 µM; TGI (UACC-257 melanoma): 4.18 µM; GI50 (UACC-62 melanoma): 1.83 µM; TGI (UACC-62 melanoma): 3.6 µM; GI50 (UO-31 renal): 2.02 µM; TGI (UO-31 renal): 7.16 µM
